# Laboratory results from patent US11739122B2, “Glycopeptide antibiotic compounds, methods for producing the same, and uses thereof” (Academia Sinica, priority 2019, dated 2023).
# How the values were obtained:
# [1] = tested on: MRSA ATCC 43300; test: MIC, broth microdilution; type: cell-based, Staphylococcus aureus; details: MRSA ATCC 43300
# Summary of the method: (§1)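 Inoculum: 0.5 McFarland broth culture, adjusted to ~1×10^8 CFU mL^−1. Incubation 37° C, 18-24 h. Read-out: visible growth; MIC = concentration with no growth in well.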
# [2] = tested on: MRSA ATCC 700698 hVISA; test: MIC, broth microdilution; type: cell-based, Staphylococcus aureus; details: MRSA ATCC 700698 hVISA
# Summary of the method: as §1
# [3] = tested on: MRSA ATCC 700787 VRSA; test: MIC, broth microdilution; type: cell-based, Staphylococcus aureus
# Summary of the method: as §1
# [4] = tested on: MRSA ATCC 700789 VRSA; test: MIC, broth microdilution; type: cell-based, Staphylococcus aureus; details: MRSA ATCC 700789 VRSA
# Summary of the method: as §1
# [5] = tested on: MRSA ATCC BAA-38; test: MIC, broth microdilution; type: cell-based, Staphylococcus aureus; details: MRSA ATCC BAA-38
# Summary of the method: as §1
# [6] = tested on: MRSA ATCC BAA-39; test: MIC, broth microdilution; type: cell-based, Staphylococcus aureus; details: MRSA ATCC BAA-39
# Summary of the method: as §1
# [7] = tested on: MRSA ATCC BAA-44; test: MIC, broth microdilution; type: cell-based, Staphylococcus aureus; details: MRSA ATCC BAA-44
# Summary of the method: as §1
# [8] = tested on: S. aureus ATCC 29213; test: MIC, broth microdilution; type: cell-based, Staphylococcus aureus; details: SA ATCC 29213
# Summary of the method: as §1
# [9] = tested on: E. faecalis ATCC 29302; test: MIC, broth microdilution; type: cell-based; details: EF ATCC 29302
# Summary of the method: as §1
# [10] = tested on: VRE ATCC 700221 (vanA); test: MIC, broth microdilution; type: cell-based, enterococci; details: VRE ATCC 700221 (vanA)
# Summary of the method: as §1
# [11] = tested on: VRE ATCC 700425 (vanC); test: MIC, broth microdilution; type: cell-based, enterococci; details: VRE ATCC 700425 (vanC)
# Summary of the method: as §1
# [12] = tested on: VRE ATCC 700802 (vanB); test: MIC, broth microdilution; type: cell-based, enterococci; details: VRE ATCC 700802 (vanB)
# Summary of the method: as §1
# [13] = tested on: MRSA ATCC 700787; test: Thin-section TEM, cell wall morphology; type: cell-based, Staphylococcus aureus
# Protocol: (§2) Thin-Section Transmission Electron Microscopy (TEM)
# (§3) An overnight cultured MRSA ATCC 700787, VRE ATCC 700221 or A. baumannii ATCC 19606 was individually sub-cultured into a fresh medium. Bacteria at the exponential phase were treated with a given test compound at a concentration of 4×MIC for 1-4 hour at 37° C. and followed by wash and resuspension in PBS. Bacteria cells for the TEM analysis were prepared as follows: Cells were fixed with 2.5% glutaraldehyde for 30 minutes. After the fixation, cells were washed twice with PBS and fixed with 1% osmium tetraoxide for another 30 minutes. All the buffer was removed with distilled water. The cells were then stained with 1% uranyl acetate and dehydrated with a graded ethanol solution. Cells were embedded in resin. Finally, each sample was cut into thin slices of approximately 90 nm with a glass knife and stained with uranyl acetate. The images of bacterial morphological were recorded.
# The cell wall/membrane apparently is the targets, while the extent of damage depends on what compound imposes on the strain. […] Cell wall thickening has been a common phenotype in clinical MRSA isolates, which may well be a phenotypic determinant for VRSA. The systemic cell-wall damage may account for the cell-wall biosynthesis crippled all over the cell surface in cell-wall thickening strains, thus leading cells to lysis as a result of the osmotic pressure of cytoplasm.
# [14] = tested on: VRE ATCC 700221 (vanA type); test: Thin-section TEM, cell wall morphology; type: cell-based, enterococci; details: VRE ATCC700221, vanA type
# Protocol: as §2, §3
# The cell wall was almost intact but interspersed with holes, where cell fluids outflew leading cells to death. In general, VRE was immune to compound 1 or 2 (>256 μgmL^−1), median sensitive to compound 14 (32 μgmL^−1), but highly sensitive to compound 28 (4 μgmL^−1). […]
# [15] = tested on: MRSA ATCC 700787; test: In vivo efficacy, intraperitoneal MRSA infection; parameters: species or system mice; details: peritoneal fluid, 24 hours post-inoculation, single dose 20 mgkg^−1 IP
# Protocol: In Vivo Efficacy of r6,N-Acyl-Glc Tei Analogs
# Female C57BL/6 mice (6 weeks of age; about 16-19 g, 3-5 mice per group) were intraperitoneally inoculated with 300 μL of MRSA ATCC 700787 suspension (about 10^7 CFUmL^−1). For intranasal A. baumannii (ATCC 19606) inoculation, mice were anesthetized, and inoculated intranasally with about 10^7-10^8 CFUmL^−1 A. baumannii in 50 μL of PBS. Treatments were started 1 hour after the bacterial challenge. The dose administration to mice was set as follows: teicoplanin (1) or r6,C8-Tei analog (14) 20 mgkg^−1 was intraperitoneally injected to MRSA-infected mice; amikacin (15 mgkg^−1), teicoplanin (1) (30 mgkg^−1), kanamycin (30 mgkg^−1) or r1,Me2-r6,guanidino-C8 analog (24) (30 mgkg^−1) was intraperitoneally injected to AB-infected mice. To assess bacteraemia, the test animals were sacrificed to collect 1 mL of peritoneal fluid (PF) for MRSA counting or the lungs were lavaged to collect 0.6 mL bronchoalveolar lavage (BAL) fluid for A. baumannii counting.
# For MRSA, mice were inoculated intraperitoneally (IP) with 0.3 mL of MRSA ATCC 700787 suspension (about 10^7 CFUmL^−1). […] For the saline treated control, bacterial count was calculated (about 7.5 log CFUmL^−1, FIG. 4A). […]
structure (smiles),measurement,setting,value
"CCCCCCCC(=O)N[C@H]1[C@H](O[C@@H]2c3ccc(c(Cl)c3)Oc3cc4cc(c3O)Oc3ccc(cc3Cl)C[C@H]3NC(=O)[C@H](N)c5ccc(O)c(c5)Oc5cc(O)cc(c5)[C@H](NC3=O)C(=O)N[C@H]4C(=O)N[C@H]3C(=O)N[C@@H]2C(=O)N[C@H](C(=O)O)c2cc(O)cc(O)c2-c2cc3ccc2O)O[C@H](CO)[C@@H](O)[C@@H]1O [Compound 14, r6,N-octyl-Glc Tei]",MIC,[1],0.063 µg/mL
same,MIC,[2],0.016 µg/mL
same,MIC,"[3]; MRSA ATCC 700787, Table 4",0.016 µg/mL
same,MIC,[3]; MRSA ATCC 700787 VRSA,0.016 µg/mL
same,MIC,[4],0.5 µg/mL
same,MIC,[5],0.016 µg/mL
same,MIC,[6],0.016 µg/mL
same,MIC,[7],0.016 µg/mL
same,MIC,[8],0.016 µg/mL
same,MIC,[9],0.25 µg/mL
same,MIC,[10],>16 µg/mL
same,MIC,[11],1 µg/mL
same,MIC,[12],0.5 µg/mL
same,cell wall morphology by TEM,[13],cell wall damage toward full cell lysis
same,sensitivity of VRE to compound (concentration),[14],32 µg/mL
same,bacterial load reduced by,[15],2 log CFUmL^−1
